Data taken from patent US8187823B2, “Modulation of neuroglia-derived BDNF in the treatment and prevention of pain” (Université Laval, priority 2004, dated 2012).

B1: BDNF: brain-derived neurotrophic factor; recombinant human BDNF delivered intrathecally or bath-applied (protein, listed as Homo sapiens)
chain: MTILFLTMVISYFGCMKAAPMKEANIRGQGGLAYPGVRTHGTLESVNGPKAGSRGLTSLADTFEHVIEELLDEDQKVRPNEENNKDADLYTSRVMLSSQVPLEPPLLFLLEEYKNYLDAANMSMRVRRHSDPARRGELSVCDSISEWVTAADKKTAVDMSGGTVTVLEKVPVSKGQLKQYFYETKCNPMGYTKEGCRGIDKRHWNSQCRTTQSYVRALTMDSKKRIGWRFIRIDTSCVCTLTIKRGR

Key:
[1] = test system: cultured microglia; assay: ELISA of BDNF protein in supernatant of cultured microglia; type: cell-based, rat; conditions: ATP stimulation; TNP-ATP 10 μM; supernatant 5 hours after treatment
Procedure: Microglial cultures. Rat primary cultured microglia were prepared under standard conditions as described^2,21. In brief, mixed glial culture was prepared from neonatal Wistar rats and maintained for 10-16 days in DMEM medium with 10% fetal bovine serum. Microglia were separated from the primary culture by gentle shaking of the flask and replated on plastic dishes. The cells were removed from the dish surface using a cell scraper and collected in 100 μl of PBS; subsequently, the cell density of microglia was measured using a cell counter and the volume of PBS adjusted to give a final density of 1000 cells/10 μl. This method produces microglial cultures of >95% purity. For ATP-stimulation, the purified microglia were incubated with ATP (50 μM) for 1 hour. […]

[2] = test system: rats with peripheral nerve injury; conditions: literature (ref. 2), acting on P2X receptors in microglia; cited from earlier work
[3] = test system: LI neurons; assay: Eanion of LI neurons in spinal slices from PNI rats with bath-applied agents; type: cell-based, rat; conditions: TNP-ATP 1 μM bath-applied, slices from allodynic rats two weeks after PNI
Procedure: (§1) Peripheral nerve injury was induced by surgically implanting a polyethylene cuff (2 mm in length, inner diameter 0.7 mm) around the sciatic nerve of adult male Sprague-Dawley rats^3,17. For sham surgery, which was used as a control, animals had all surgical procedures exempt that the cuff was not implanted. The 50% withdrawal threshold, or 50% paw withdrawal threshold, to mechanical stimulation was assessed^3,18. […] In animals with peripheral nerve injury induced in this model, there was microglial activation in the spinal cord ipsilateral to the nerve cuff, as indicated by increased labeling for the microglial activation marker OX-42 (FIGS. 5B and 5C).
(§2) Slice preparation. Parasagittal slices (300-350 μm) of spinal cord were prepared from adult (>50 days old) male rats as previously described^31. Slices were continually superfused (2-3 ml min^−1) with artificial cerebrospinal fluid (ACSF) containing (in mM): 126 NaCl, 26 NaHCO3, 10 glucose, 2.5 KCl, 2 CaCl2, 2 MgCl2, 1.25 NaH2PO4 (bubbled with 95% O2/5% CO2, pH ˜7.4).
Recordings. For perforated-patch recordings, the pipette tip was filled with a solution containing (in mM): 130 potassium methyl sulphate (KMeSO4), 5 CsCl, 2 MgCl2, 11 BAPTA, 1 CaCl2, 4 ATP, 0.4 GTP, 10 HEPES (˜pH 7.4). […]

[4] = test system: LI neurons; assay: Eanion of LI neurons in spinal slices from naïve rats with bath-applied BDNF; type: cell-based, rat; conditions: BDNF 50 ng/ml, >90 min
Procedure: as §2
Recordings. For perforated-patch recordings, the pipette tip was filled with a solution containing (in mM): 130 potassium methyl sulphate (KMeSO4), 5 CsCl, 2 MgCl2, 11 BAPTA, 1 CaCl2, 4 ATP, 0.4 GTP, 10 HEPES (˜pH 7.4). The pipette was back-filled with this same solution supplemented with 25 μg ml^−1 gramicidin D [gramicidin stock was at 10 mg ml^−1 in dimethylsulphoxide (DMSO)]. Recordings in this mode were selected when access resistance was stable between 25-45 MΩ. For whole-cell voltage-clamp recordings, pipettes were filled with the above solution lacking gramicidin D. GABA was applied locally for 10-50 ms by pressure ejection through a micro-pipette. Data acquisition and analysis of PSCs were performed as previously described^19; membrane potential measurements were corrected as previously described^20. […] All measurements are given as means±SEM, except where indicated. […]

[5] = test system: naïve rats; assay: Paw withdrawal threshold (WD50) after intrathecal delivery to naïve rats; type: in vivo, rat; conditions: for paw withdrawal threshold (WD50): intrathecal delivery to naïve/intact rats
Procedure: as §1
Microglial cultures. Rat primary cultured microglia were prepared under standard conditions as described^2,21. In brief, mixed glial culture was prepared from neonatal Wistar rats and maintained for 10-16 days in DMEM medium with 10% fetal bovine serum. Microglia were separated from the primary culture by gentle shaking of the flask and replated on plastic dishes. The cells were removed from the dish surface using a cell scraper and collected in 100 μl of PBS; subsequently, the cell density of microglia was measured using a cell counter and the volume of PBS adjusted to give a final density of 1000 cells/10 μl. This method produces microglial cultures of >95% purity. For ATP-stimulation, the purified microglia were incubated with ATP (50 μM) for 1 hour.
Intrathecal injections and ELISA. At least three days before drug administration, rats were anaesthetized with sodium pentobarbital (65 mg kg^−1), and a lumbar spinal catheter (PE-10 polyethylene tube) was inserted into the intrathecal space^22. On recovery from surgery, lower-body paralysis was induced through intrathecal lidocaine (2%, 30 μl) injection to confirm proper catheter localization. […] At the doses used, none of the compounds produced motor disturbances or sedation, as assessed by grasping, righting and placing reflexes and behavioural observations^23. […]

Row | Molecule | release of BDNF from microglia in culture [1] | nerve injury-induced tactile allodynia [2] | Eanion of LI neurons [3] [mV] | Eanion of LI neurons vs control untreated slices [4] | paw withdrawal threshold (WD50) [5] | paw withdrawal threshold (WD50) ([5]; listed as recombinant human BDNF) | time to significant decrease in WD50 ([5]; recombinant human BDNF 20 μg intrathecal, intact rats) [h]
1 | Nc1ncnc2c1ncn2[C@@H]1O[C@H](COP(=O)(O)OP(=O)(O)OP(=O)(O)O)[C@@H](O)[C@H]1O [ATP] | caused release of BDNF | – | – | – | – | – | –
2 | TNP-ATP | blocked | reverse nerve injury-induced tactile allodynia | −59.3±1.8 | – | – | – | –
3 | B1 | – | – | – | significantly less negative | decrease in paw withdrawal threshold | significant and transient decrease in the WD50 | ≤ 1
